Reference: PubChem BioAssay (NCI)
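Dose response: 5 concentrations. Exposure: 48 h. Format: 96-well plates. Endpoint: linear interpolation; highest concentration if not reached. At the GI50, growth is halved. At the TGI there is no net growth.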

How the values were obtained:
Assay in all cases: NCI-60 cell line screen, 48 h
NCI-H460 lung = test system: NCI-H460 lung
A549 NSCLC = test system: A549 NSCLC
M14 melanoma = test system: M14 melanoma
HOP-62 NSCLC = test system: HOP-62 NSCLC
HCT-15 colon = test system: HCT-15 colon
OVCAR-3 ovarian = test system: OVCAR-3 ovarian
IGROV1 ovarian = test system: IGROV1 ovarian
SK-MEL-28 melanoma = test system: SK-MEL-28 melanoma
LOX IMVI melanoma = test system: LOX IMVI melanoma
UO-31 renal = test system: UO-31 renal

| Compound | GI50 (NCI-H460 lung) | TGI (NCI-H460 lung) | GI50 (A549 NSCLC) | TGI (A549 NSCLC) | GI50 (M14 melanoma) | TGI (M14 melanoma) | GI50 (HOP-62 NSCLC) | TGI (HOP-62 NSCLC) | GI50 (HCT-15 colon) | TGI (HCT-15 colon) | GI50 (OVCAR-3 ovarian) | TGI (OVCAR-3 ovarian) | GI50 (IGROV1 ovarian) | TGI (IGROV1 ovarian) | GI50 (SK-MEL-28 melanoma) | TGI (SK-MEL-28 melanoma) | GI50 (LOX IMVI melanoma) | TGI (LOX IMVI melanoma) | GI50 (UO-31 renal) | TGI (UO-31 renal) |
| --- | --- | --- | --- | --- | --- | --- | --- | --- | --- | --- | --- | --- | --- | --- | --- | --- | --- | --- | --- | --- |
| CN(C)c1ccc(-c2cc(-c3ccc(Nc4nc(Nc5ccc(Cl)cc5)nc(Nc5ccc(Cl)cc5)n4)cc3)no2)cc1 | 3.03 µM | 12.3 µM | 5.12 µM | 27.5 µM | 2.62 µM | 13.3 µM | 4.8 µM | 24.1 µM | 5.2 µM | > 100 µM | 3.42 µM | 8.96 µM | 2.06 µM | 15 µM | 6.49 µM | 46.9 µM | 4.22 µM | 35.6 µM | 2.69 µM | 17.7 µM |
| CCOC(=O)COc1cccc2c1C(=O)CCO2 |  | > 100 µM |  | > 100 µM |  | > 100 µM |  | > 100 µM |  | > 100 µM |  | > 100 µM |  | > 100 µM |  | > 100 µM |  | > 100 µM |  | > 100 µM |
| COc1ccc2nc3cc(Cl)ccc3c(Sc3ccccc3[N+](=O)[O-])c2c1 |  | > 100 µM |  | > 100 µM |  | > 100 µM |  | > 100 µM |  | > 100 µM |  | > 100 µM |  | > 100 µM |  | > 100 µM |  | > 100 µM |  | > 100 µM |
| Clc1cccc(Cc2cn3cc(-c4ccccc4)nc3s2)c1Cl | > 100 µM | > 100 µM | 27.2 µM | > 100 µM | > 100 µM | > 100 µM | 3.9 µM | 47.7 µM | > 100 µM | > 100 µM | 37.9 µM | > 100 µM | 31.4 µM | > 100 µM | 54.4 µM | > 100 µM | 14.5 µM | > 100 µM | > 100 µM | > 100 µM |
| Cc1cc(=O)[nH]c2cc3oc4ccccc4c3cc12 |  | > 100 µM |  | > 100 µM |  | > 100 µM |  | > 100 µM |  | > 100 µM |  | > 89.4 µM |  | > 100 µM |  | > 100 µM |  | > 100 µM |  | > 100 µM |
| CSc1ccc(/C=C2\CN(C)C/C(=C\c3ccc(SC)cc3)C2=O)cc1 |  | > 100 µM |  | > 100 µM |  | > 100 µM |  | > 100 µM |  | > 100 µM |  | 56 µM |  | > 100 µM |  | > 100 µM |  | 22.6 µM |  | > 100 µM |
| O=[N+]([O-])c1cnc(Sc2ccncn2)s1 | 8.12 µM | 25.9 µM | 10.1 µM | 27.1 µM | 2.76 µM | 7.25 µM | 21.8 µM | 40.2 µM | 1.75 µM | 3.44 µM | 1.74 µM | 3.16 µM | 1.71 µM | 3.35 µM | 1.98 µM | 3.69 µM | 2.65 µM | 6.7 µM | 1.75 µM | 3.2 µM |
| CCN(CC)CC(C(=O)Nc1c(C)cccc1C)/C(C)=N\NC(=O)C[N+](C)(C)C (stereo not given) |  | > 100 µM |  | > 100 µM |  | > 100 µM |  | > 100 µM |  | > 100 µM |  | > 100 µM |  | > 100 µM |  | > 100 µM |  | > 100 µM |  | > 100 µM |
| COc1ccc(-n2/c(=N/C(=S)N(C)C)ss/c2=N\C(=S)N(C)C)cc1 |  | 11.2 µM |  | > 100 µM |  | > 100 µM |  | > 100 µM |  | > 100 µM |  | 53.1 µM |  | > 100 µM |  | > 100 µM |  | > 100 µM |  | > 100 µM |
| CC(=O)C(CN(C(C)C)C(C)C)C(c1ccccc1)c1c(O)c2ccccc2oc1=O (stereo not given) |  | > 100 µM |  | > 100 µM |  | > 100 µM |  | > 100 µM |  | > 100 µM |  | > 100 µM |  | > 100 µM |  | > 100 µM |  | > 100 µM |  | > 100 µM |
| CCCCCCCC(=O)SCC/C=C/[C@@H]1CC(=O)NCc2cccc(n2)C2=N[C@@](C)(CS2)C(=O)N[C@@H](C(C)C)C(=O)N1 | 0.532 µM | > 33.3 µM | 0.723 µM | > 33.3 µM | 1.32 µM | > 33.3 µM | 1.07 µM | > 33.3 µM | 14.3 µM | > 33.3 µM | 0.402 µM | 9.27 µM | 0.224 µM | 15.2 µM | 1.02 µM | > 33.3 µM | 0.774 µM | 4.01 µM | 4.54 µM | > 33.3 µM |
| O[C@H]1[C@H]2c3cc4c(cc3CN3CCC(=C[C@@H]1O)[C@H]23)OCO4 |  | 5.88 µM |  | 13.1 µM |  | 8.2 µM |  | > 27.4 µM |  | 5.32 µM |  | 11.9 µM |  | 0.874 µM |  | 22.6 µM |  | 5.06 µM |  | 4.77 µM |
| CC1(C)OC(=O)C(=Cc2ccc(O)cc2)C(=O)O1 |  | > 100 µM |  | > 100 µM |  | > 100 µM |  | > 100 µM |  | > 100 µM |  | > 100 µM |  | > 100 µM |  | > 100 µM |  | > 100 µM |  | > 100 µM |
